Laboratory results from US7906522B2, “2-aminoquinazoline derivatives” (Kyowa Hakko Kirin Co., Ltd, priority 2005, dated 2011).

What follows are molecules tested against T1, Activated human p38α (Homo sapiens, UniProt Q16539) (assay: p38MAP kinase inhibition test). Conditions: at a concentration of 1 μmol/L; substrate myelin basic protein, ATP 20 μmol/L, [γ-32P]ATP; read-out: enzyme inhibitory activity.
T1 construct: purchased Upstate Biotechnology Inc. 14-251
T1 sequence (Q16539 whole entry): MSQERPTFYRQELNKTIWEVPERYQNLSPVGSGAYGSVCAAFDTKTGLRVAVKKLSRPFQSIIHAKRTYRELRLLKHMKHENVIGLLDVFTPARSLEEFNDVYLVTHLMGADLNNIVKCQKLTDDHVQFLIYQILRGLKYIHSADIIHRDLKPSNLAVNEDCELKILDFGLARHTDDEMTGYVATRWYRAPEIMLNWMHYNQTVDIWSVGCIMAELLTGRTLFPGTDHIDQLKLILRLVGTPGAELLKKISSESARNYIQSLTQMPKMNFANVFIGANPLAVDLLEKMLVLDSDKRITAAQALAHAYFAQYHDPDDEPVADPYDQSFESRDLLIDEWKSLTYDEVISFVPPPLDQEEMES
Format: biochemical
Experimental: p38MAP Kinase Inhibition Test
Activated human p38α was purchased from Upstate Biotechnology Inc. (Catalog No. 14-251). P38MAP kinase inhibitory activity was measured by the procedure described below with reference to the method by Whitmarsh A. J. and Davis R. J. [Methods in Enzymology (Method. Enzymol.), vol. 332, p. 319-336 (2001)]. As the substrate to be phosphorylated, a myelin basic protein (Catalog No. 133-13493, Wako Pure Chemical Industries, Ltd.) (20 μg/assay) was used. The reaction was carried out in a solution containing 3-[N-Morpholino]propanesulfonic acid (MOPS) (20 mmol/L, pH 7.2), β-glycerophosphoric acid (Sigma Corp.) (25 mmol/L), ethylenebis(oxyethylenenitrilo)tetraacetic acid (EGTA) (1 mmol/L), […] (Sigma-Aldrich Corp.) (1 mmol/L), dithiothreitol (DTT, Wako Pure Chemical Industries, Ltd.) (1 mmol/L), adenosine 5′-triphosphate (ATP, Sigma Corp.) (20 μmol/L), and MgCl2 (18.75 mmol/L) (total 40 μL/assay). The reaction was started by adding human p38α and [γ-^32P]ATP (1 μCi/assay), and incubation was performed at 30° C. for 15 minutes. The reaction was terminated by adding 4.5% v/v phosphoric acid (10 μL/well). Then, 45 μL of the reaction mixture was adsorbed onto phosphocellulose paper (p81 paper, Code No. 3698023, Whatman International, Maidstone, UK). The phosphocellulose paper was washed with 0.75% v/v phosphoric acid. Then, the radioactivity of the phosphorylated myelin basic protein ([^32P]) remaining on the phosphocellulose paper was measured with a scintillation counter (TRI-CARB2700TR, PerkinElmer, Boston, Mass., USA) using program No. 27 (data mode: cpm, measurement time: 1 min, Background substract: none, energy range measured: LL 0.0-UL 2000) or a scintillation counter (LS6500, BeckmanCoulter, Fullerton, Calif., USA) using program No. 17 (data mode: cpm, measurement time: 1 min, Background substract: none, energy range measured: high). The test compound was dissolved in DMSO before addition.
Molecule `Cc1ccc(NC(=O)c2cnccn2)cc1-c1ccc2nc(NC(C)C)ncc2c1` [Compound 261, 2-Isopropylamino-6-[2-methyl-5-(pyrazinylcarbonylamino)phenyl]quinazoline] has an inhibition at 1 µM of no less than 50%.
Molecule `COc1cc2nc(NC(C)C)ncc2cc1-c1cccc(NC(=O)c2ccccc2C(F)(F)F)c1` [Compound 217, 2-Isopropylamino-7-methoxy-6-{3-[(2-trifluoromethylphenyl)carbonylamino]phenyl}quinazoline] has an inhibition at 1 µM of no less than 50%.
Molecule `CC(=O)c1c(O)c(-c2ccccc2Cl)cc2cnc(NC(C)C)nc12` [Compound 78, 8-Acetyl-6-(2-chlorophenyl)-7-hydroxy-2-(isopropylamino)quinazoline] has an inhibition at 1 µM of no less than 50%.
With `COc1cc2nc(NC(C)C)ncc2cc1-c1ccccc1` [Compound 44, 2-Isopropylamino-7-methoxy-6-phenylquinazoline] the inhibition at 1 µM was no less than 50%.
`CC(C)Nc1ncc2cc(C(=O)c3ccccc3Cl)c(O)cc2n1` [Compound 125, 6-(2-Chlorobenzoyl)-7-hydroxy-2-(isopropylamino)quinazoline] showed an inhibition at 1 µM of no less than 50%.
Work on `Cc1ccccc1-c1ccc2nc(NC3CCN(S(C)(=O)=O)CC3)ncc2c1` [Compound 275, 6-(2-Methylphenyl)-2-[1-(methylsulfonyl)piperidin-4-ylamino]quinazoline] yielded an inhibition at 1 µM of no less than 50%.
`Cc1ccc(NC(=O)c2ccc[n+]([O-])c2)cc1-c1ccc2nc(NC(C)C)ncc2c1` [Compound 263, 2-Isopropylamino-6-{2-methyl-5-[(pyridine-1-oxide-3-yl)carbonylamino]phenyl}quinazoline] gave an inhibition at 1 µM of no less than 50%.
Molecule `CCOC(=O)c1oc2c(-c3ccccc3Cl)cc3cnc(NC(C)C)nc3c2c1C` [Compound 111, 6-(2-Chlorophenyl)-8-ethoxycarbonyl-2-isopropylamino-9-methylfuro[2,3-h]quinazoline] has an inhibition at 1 µM of no less than 50%.
With `COc1cc2nc(Nc3c(Cl)cccc3Cl)ncc2cc1-c1ccccc1Cl` [Compound 17, 6-(2-Chlorophenyl)-2-(2,6-dichloroanilino)-7-methoxyquinazoline] the inhibition at 1 µM was no less than 50%.
`COc1cc2nc(NC(C)C)ncc2cc1-c1cccc(C=O)c1` [Compound 197, 6-(3-Formylphenyl)-2-isopropylamino-7-methoxyquinazoline] gave an inhibition at 1 µM of no less than 50%.
With `COc1cc2nc(NC(C)C)ncc2cc1-c1cc(N)ccc1CO` [Compound 224, 6-[5-Amino-2-(hydroxymethyl)phenyl]-2-isopropylamino-7-methoxyquinazoline] the inhibition at 1 µM was no less than 50%.
In the case of `N[C@H]1CC[C@H](Nc2ncc3cc(C(=O)c4ccccc4)c(O)cc3n2)CC1` [Compound 139, 2-(trans-4-Aminocyclohexylamino)-6-benzoyl-7-hydroxyquinazoline], the inhibition at 1 µM is reported as no less than 50%.
For `COc1cc2nc(NC(C)C)ncc2cc1-c1ccc(O)cc1` [Compound 47, 6-(4-Hydroxyphenyl)-2-isopropylamino-7-methoxyquinazoline], the inhibition at 1 µM was no less than 50%.
Molecule `COc1cc2nc(NC(C)C)ncc2cc1-c1cc(NC(C)=O)ccc1C` [Compound 230, 6-(5-Acetylamino-2-methylphenyl)-2-isopropylamino-7-methoxyquinazoline] has an inhibition at 1 µM of no less than 50%.
`COc1cccc(-c2cc3cnc(NC(C)C)nc3cc2OC)c1` [Compound 201, 2-Isopropylamino-7-methoxy-6-(3-methoxyphenyl)quinazoline] was tested, and the inhibition at 1 µM was no less than 50%.
Molecule `CC(C)Nc1ncc2cc(-c3cccc(NC(=O)C4CC4)c3)c(O)cc2n1` [Compound 296, 6-[3-(Cyclopropylcarbonylamino)phenyl]-7-hydroxy-2-(isopropylamino)quinazoline] has an inhibition at 1 µM of no less than 50%.
`COc1cc2nc(NC(C)C)ncc2cc1-c1cccc(NC(=O)C2CCC2)c1` [Compound 222, 6-[3-(Cyclobutylcarbonylamino)phenyl]-2-isopropylamino-7-methoxyquinazoline] gave an inhibition at 1 µM of no less than 50%.
In the case of `COc1cc2nc(NC(C)C)ncc2cc1-c1ccc(F)cc1C` [Compound 206, 6-(4-Fluoro-2-methylphenyl)-2-isopropylamino-7-methoxyquinazoline], the inhibition at 1 µM is reported as no less than 50%.
Molecule `COc1cc2nc(NC(C)C)ncc2cc1-c1ccccc1Cl` [Compound 4, 6-(2-Chlorophenyl)-2-isopropylamino-7-methoxyquinazoline] has an inhibition at 1 µM of no less than 50%.
With `COCOc1c(-c2ccccc2Cl)cc2cnc(NC(C)C)nc2c1-c1ccc(C(=O)O)cc1` [Compound 91, 8-(4-Carboxyphenyl)-6-(2-chlorophenyl)-2-isopropylamino-7-(methoxymethyloxy)quinazoline] the inhibition at 1 µM was no less than 50%.
For `COc1cc2nc(NC(C)C)ncc2cc1-c1cc(NC(=O)c2ccnc(N3CCOCC3)c2)ccc1C` [Compound 231, 2-Isopropylamino-7-methoxy-6-{2-methyl-5-[(2-morpholinopyridin-4-yl)carbonylamino]phenyl}quinazoline], the inhibition at 1 µM was no less than 50%.
Work on `COc1cc2nc(NC3CCOCC3)ncc2cc1-c1ccccc1Cl` [Compound 11, 6-(2-Chlorophenyl)-7-methoxy-2-(4-tetrahydropyranylamino)quinazoline] yielded an inhibition at 1 µM of no less than 50%.
`CC(C)Nc1ncc2cc(-c3ccccc3Cl)c(O)c(I)c2n1` [Compound 88, 6-(2-Chlorophenyl)-7-hydroxy-8-iodo-2-(isopropylamino)quinazoline] was tested, and the inhibition at 1 µM was no less than 50%.
With `Cc1ccc(NC(=O)C2CCC2)cc1-c1ccc2nc(NC(C)C)ncc2c1` [Compound 265, 6-(5-Cyclobutylcarbonylamino-2-methylphenyl)-2-(isopropylamino)quinazoline] the inhibition at 1 µM was no less than 50%.
With `COc1cc2nc(NC(C)C)ncc2cc1-c1cc(NC(=O)c2ccc[nH]2)ccc1CO` [Compound 228, 6-{2-Hydroxymethyl-5-[(1H-pyrrol-2-yl)carbonylamino]phenyl}-2-isopropylamino-7-methoxyquinazoline] the inhibition at 1 µM was no less than 50%.
Molecule `CCCOC(=O)c1c(OC)c(-c2ccccc2Cl)cc2cnc(NC(C)C)nc12` [Compound 62, 6-(2-Chlorophenyl)-2-isopropylamino-7-methoxy-8-(propoxycarbonyl)quinazoline] has an inhibition at 1 µM of no less than 50%.
`COc1cc2nc(NC(C)C)ncc2cc1-c1ccccc1O` [Compound 186, 6-(2-Hydroxyphenyl)-2-isopropylamino-7-methoxyquinazoline] was tested, and the inhibition at 1 µM was no less than 50%.
Molecule `CC[C@H](C)Nc1ncc2cc(C(=O)c3cccc(C)c3)c(O)cc2n1` [Compound 135, (S)-2-(sec-Butylamino)-7-hydroxy-6-(3-methylbenzoyl)quinazoline] has an inhibition at 1 µM of no less than 50%.
`COc1cc2nc(NC(C)C)ncc2cc1-c1cccc(NC(C)=O)c1` [Compound 52, 6-[(3-Acetylamino)phenyl]-2-isopropylamino-7-methoxyquinazoline] showed an inhibition at 1 µM of no less than 50%.
Molecule `Cc1ccccc1-c1cc2cnc(NC(C)C)nc2cc1O` [Compound 245, 7-Hydroxy-2-isopropylamino-6-(2-methylphenyl)quinazoline] has an inhibition at 1 µM of no less than 50%.
Molecule `CCCC(CCC)Nc1ncc2cc(-c3ccccc3C)c(O)cc2n1` [Compound 174, 7-Hydroxy-6-(2-methylphenyl)-2-(4-heptylamino)quinazoline] has an inhibition at 1 µM of no less than 50%.
With `CC(C)Nc1ncc2cc(C(=O)c3ccccc3)c(O)cc2n1` [Compound 110, 6-Benzoyl-7-hydroxy-2-(isopropylamino)quinazoline] the inhibition at 1 µM was no less than 50%.
`COc1cc2nc(NC(C)C)ncc2cc1-c1cc(N)ccc1C` [Compound 229, 6-(5-Amino-2-methylphenyl)-2-isopropylamino-7-methoxyquinazoline] gave an inhibition at 1 µM of no less than 50%.
For `COc1cc2nc(NC(C)C)ncc2cc1-c1cc(NC(C)=O)ccc1F` [Compound 233, 6-(5-Acetylamino-2-fluorophenyl)-2-isopropylamino-7-methoxyquinazoline], the inhibition at 1 µM was no less than 50%.
Work on `CNc1ncc2cc(-c3cc(NC(C)=O)ccc3C)c(OC)cc2n1` [Compound 250, 6-(5-Acetylamino-2-methylphenyl)-7-methoxy-2-(methylamino)quinazoline] yielded an inhibition at 1 µM of no less than 50%.
Molecule `CC(C)Nc1ncc2cc(C(=O)c3cccc(Cl)c3)c(O)cc2n1` [Compound 120, 6-(3-Chlorobenzoyl)-7-hydroxy-2-(isopropylamino)quinazoline] has an inhibition at 1 µM of no less than 50%.
`COc1cc2nc(NC(C)C)ncc2cc1-c1ccccc1C(F)(F)F` [Compound 192, 2-Isopropylamino-7-methoxy-6-(2-trifluoromethylphenyl)quinazoline] gave an inhibition at 1 µM of no less than 50%.
`COc1cc2nc(NC(C)C)ncc2cc1-c1ccccc1C` [Compound 191, 2-Isopropylamino-7-methoxy-6-(2-methylphenyl)quinazoline] was tested, and the inhibition at 1 µM was no less than 50%.
Molecule `CC(C)Nc1ncc2cc(-c3ccccc3Cl)c(OCC(=O)O)cc2n1` [Compound 33, 7-(Carboxymethyloxy)-6-(2-chlorophenyl)-2-isopropylaminoquinazoline] has an inhibition at 1 µM of no less than 50%.
